Earlier results, collected in patent publication US20120070472A1, “CHRONOTHERAPEUTIC COMPOSITIONS AND METHODS OF THEIR USE” (Circ Pharma Research & Development Limited, priority 2004, published 2012).
Where two headings read alike, the source gives them in different places.

Elimination Half-Life (in vivo)	Elimination Half-Life (i/v)	Elimination Half-Life (po)	SMILES
	2.4 h	6.4 h	COc1ccccc1OCCNCC(O)COc1cccc2[nH]c3ccccc3c12 (stereo not drawn) [Carvedilol]
1.5 h			NS(=O)(=O)c1cc2c(cc1Cl)N=CNS2(=O)=O [Chlorothiazide]
3.8 h			COC(=O)C1=C(C)NC(C)=C(C(=O)OC(C)C)C1c1cccc2nonc12 (stereo not drawn) [Isradipine]
4.9 h			CC(CCc1ccccc1)NCC(O)c1ccc(O)c(C(N)=O)c1 (stereo not drawn) [Labetalol]
3.9 h			CC(C)NCC(O)COc1cccc2ccccc12 (stereo not drawn) [Propranolol]
4.1 h			CC(C)(C)NC[C@H](O)COc1nsnc1N1CCOCC1 [Timolol]

The next lines start with the molecule.

SMILES	Elimination Half-Life (in vivo)	Elimination Half-Life (i/v)	Elimination Half-Life (po)
CCCC(=O)Nc1ccc(OCC(O)CNC(C)C)c(C(C)=O)c1 (stereo not drawn) [Acebutolol]	2.7 h		
C=CCc1ccccc1OCC(O)CNC(C)C (stereo not drawn) [Alprenolol]	2.5 h		
COc1ccc([C@@H]2Sc3ccccc3N(CCN(C)C)C(=O)[C@@H]2OC(C)=O)cc1 [Diltiazem]	3.7 h		
CC(C)N(CCC(C(N)=O)(c1ccccc1)c1ccccn1)C(C)C (stereo not drawn) [Disopyramide]	6.0 h		
NNc1nncc2ccccc12 [Hydralazine]	1.0 h		
NS(=O)(=O)c1cc2c(cc1Cl)NCNS2(=O)=O [Hydrochlorothiazide]	2.5 h		
O=C(NCCO[N+](=O)[O-])c1cccnc1 [Nicorandil]	1.1 h		
C=CCOc1ccccc1OCC(O)CNC(C)C (stereo not drawn) [Oxprenolol]	2.5 h		
CC(C)NCC(O)COc1cccc2[nH]ccc12 (stereo not drawn) [Pindolol]	3.6 h		
CC(=O)S[C@@H]1CC2=CC(=O)CC[C@]2(C)[C@H]2CC[C@@]3(C)[C@@H](CC[C@@]34CCC(=O)O4)[C@H]12 [Spironolactone]	1.6 h		
CCN(CC)CCNC(=O)c1ccc(NC(C)=O)cc1 [n-Acetylprocainamide]	6.0 h		
